≈ marks a conversion by molar mass, not a printed value.
Key:
[1] = system: advanced breast and ovarian cancers; settings: cited from earlier work
[2] = system: other tumor types; settings: preliminary investigations; cited from earlier work
[3] = system: A549; assay: In vitro tumor cell cytotoxicity, three day MTT microtiter assay (A549); format: cell-based, human; settings: Homo sapiens, 72 h; A549; 3 days, MTT, absorbance at 570 nm; read-out: In vitro tumor cell cytotoxicity (IC50)
Protocol: (§1) A three day microtiter assay was used to measure the growth inhibition of cultured cells exposed to a range of drug concentrations. Metabolic activity was measured by the cells' ability to reduce the tetrazolium dye, MTT (3-(4,5-dimethylthiazol-2-yl-2,5-diphenyltetrazolium bromide) to a quantifiable colored end product, which absorbs at 570 nm in the visible spectrum. Surviving cells reduce the MTT dye.
(§2) Test compounds were dissolved in dimethyl sulfoxide (DMSO) and diluted, first with Earle's Balanced Salt Solution, followed by culture medium, to twice the highest concentration of compound to be tested. From this concentrated stock, two-fold serial dilutions were prepared in 96-well microtiter trays, each well containing twice the desired final concentration of compound. Each concentration was tested in triplicate and compared to triplicate drug-free controls.
(§3) The cells were grown in the same medium used for diluting the compounds and then harvested using trypsinization. This involved removing the medium by aspiration; rinsing the cell monolayer twice with Earle's Balanced Salt Solution; adding trypsin (0.05%)/EDTA (0.53 mM; for each 25 cm^2, approximately 0.2 mL), tilting to cover the monolayer, and then withdrawing trypsin leaving only a thin film of solution; incubating at room temperature until the cell monolayers detached (as determined by visual and/or microscopic observation); adding medium contaiing fetal calf serum to stop the action of the trypsin and resuspend the cells; triturating to aid dissociation of cell clumps; and determining the number of cells per milliliter by electronic cell counter (e.g. Coulter Counter) or by mixing an aliquot of cell suspension with Trypan Blue (0.4% in normal saline) and counting the viable cells using a hemacytometer.
(§4) After harvesting and determination of viable cell counts, cell density was adjusted to 25,000 cells/mL. Inoculum (0.1 mL) containing the cells was then added to each well for a final concentration of 2,500 cells per well. Addition of the inoculum diluted the test compounds to the desired final concentration.
(§5) Microtiter trays were then incubated for three days at 36° C. in a humidified atmosphere containing 5% carbon dioxide. After three days, 20 microtiters of 5 mg/mL MTT in phosphate-buffered saline solution were added to each well. Trays were returned to the incubator for two to four hours to allow the surviving cells to reduce the dye. Medium and unreduced dye were removed by aspiration. DMSO was added to each well to dissolve the water-insoluble, colored end product of the dye reduction so that it could be measured spectrophotometrically at 570 nm.

[4] = system: P-388; assay: In vitro tumor cell cytotoxicity, three day MTT microtiter assay (P-388); format: cell-based, mouse; settings: P388, 72 h; P-388 (mouse leukemia); 3 days, MTT, absorbance at 570 nm; read-out: In vitro tumor cell cytotoxicity (IC50)
Protocol: as §1, §2, §3, §4, §5

Row | SMILES | effectiveness in clinical trials [1] | activity against other tumor types [2] | IC50 [3] [µg/mL] | IC50 [4] [µg/mL]
1 | CC(=O)O[C@H]1C(=O)[C@@]2(C)[C@H]([C@H](OC(=O)c3ccccc3)[C@]3(O)C[C@H](OC(=O)[C@H](O)[C@@H](NC(=O)c4ccccc4)c4ccccc4)C(C)=C1C3(C)C)[C@]1(OC(C)=O)CO[C@@H]1C[C@@H]2O [Taxol] | effective against advanced breast and ovarian cancers in clinical trials | promising activity against a number of other tumor types | – | –
2 | CC(=O)O[C@@H]1C2=C(C)[C@@H](OC(=O)[C@H](O)[C@@H](NC(=O)c3ccccc3)c3ccccc3)C[C@@](O)([C@@H](OC(=O)c3ccccc3)[C@@H]3[C@]4(OC(C)=O)CO[C@@H]4C[C@H](OCCO)[C@@]3(C)[C@H]1O)C2(C)C [Example 18, 9-Dihydrotaxol 7-O-(2-Hydroxyethyl) ether] | – | – | 0.039 (≈ 0.0433 µM) | 0.17 (≈ 0.189 µM)

— patent US5594157A, “Process for making taxol derivatives” (Abbott Laboratories, priority 1995, dated 1997)
